These results are taken from article PMC9114115, “Property space mapping of Pseudomonas aeruginosa permeability to small molecules” (Scientific Reports, 2022).

Molecules are shown by their SMILES. Values after ≈ are worked out from the molar mass of the structure shown. Values joined by “and” are separate entries in the source; they are usually repeats but may differ in a detail not shown here. Identical values can stand only once. Like-named read-outs stand apart in the source and are kept apart here. Where only a bound is given, the exact number is not on record here.

One data set deals with P. aeruginosa PAO1. Description: MIC by two-fold dilution, wild type PAO1. The conditions noted are these: Pseudomonas aeruginosa. The data set is classed as cell-based, Pseudomonas aeruginosa. In outline: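 Minimum inhibitory concentrations were determined by serial two-fold dilution, in LB broth for one series and MOPS-M9 medium for the other. Bacteria were cultured at 37 °C with aeration.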

The next data set concerns P. aeruginosa PAO1-Pore. Description: MIC by two-fold dilution, hyperporinated PAO1-Pore. The data set is classed as cell-based, Pseudomonas aeruginosa. As to conditions: for MIC: Pseudomonas aeruginosa; for MICs: PAO1-Pore, LB broth, Table S2. A digest of the protocol: (§1)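 Media differed between series: LB or MOPS-M9. Hyperporinated strains express FhuA from PLAC at the attTn7 site, and the efflux-deficient ones are ΔmexAB ΔmexCD ΔmexXY.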

The next data set deals with P. aeruginosa PΔ3. Description: microbe, parasite or virus in culture. It counts as cell-based, Pseudomonas aeruginosa. As to conditions: Pseudomonas aeruginosa. A digest of the protocol:
as §1

Another data set deals with P. aeruginosa PΔ3-Pore. Description: MIC by two-fold dilution, barrierless PΔ3-Pore. The data set is classed as cell-based, Pseudomonas aeruginosa. As to conditions: for MIC: Pseudomonas aeruginosa; for MICs: P∆3-Pore, Table S2. A digest of the protocol: as §1
Data set [1] has as its system four strains of P. aeruginosa. It counts as cell-based, Pseudomonas aeruginosa. How it is done:
Cells were sub-cultured (50–100 mL) 1:100 in fresh LB broth in two flasks per strain. At OD600 0.3 (~ 1.5 to 2 h of incubation), the expression of the pore was induced with 0.1 mM IPTG (final concentration) in one of the flasks and cells were grown for additional 1 to 1.5 h (OD600 1- 1.5). Cells were collected by centrifugation at room temperature (RT) and washed in PMG Buffer (50 mM KPi, pH 7.0, 1 mM MgSO4, 0.4% glucose, prepared fresh) and concentrated 20x (i.e., 100 mL culture resuspended in 5 ml of PMG Buffer with final OD600 ~ 20–30). Assays were performed in 96-well 1.0 µm Glass Fiber Type B filters plates (Millipore). […]
[…] Filter plates were dried, removed from the vacuum manifold and left in the hood overnight to dry completely.

In the next data set the test system is P. aeruginosa PAO1 cells. Description: LC–MS quantification of intracellular accumulation, PAO1.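 Note: slope of accumulation versus external concentration fitted as a line through zero.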 The conditions noted are these: 10-80 µM. A digest of the protocol: (§2)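 Cells grown in MOPS-M9 (pH 7.2) with 1% glycerol, Pore strains induced with 0.1 mM IPTG, concentrated 10X in spent medium and exposed to 10, 20, 40, 80 µM compound for 1 and 40 min at RT. Filter-collected cells extracted with methanol; compound quantified by positive-ion LC–MS against calibration in PAO1 cell extract, no-cell filter controls.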

Data set [2] relates to P. aeruginosa PAO1-Pore cells. Description: LC–MS quantification of intracellular accumulation, PAO1-Pore.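 Note: slope of accumulation versus external concentration fitted as a line through zero.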 The conditions noted are these: 10-80 µM. In outline: as §2
In a further data set the test system is P. aeruginosa PΔ3 cells. As to conditions: 10-80 µM. In outline:
as §2

The subject of data set [3] is P. aeruginosa PΔ3-Pore cells. Description: LC–MS quantification of intracellular accumulation, PΔ3-Pore.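 Note: slope of accumulation versus external concentration fitted as a line through zero.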 The conditions noted are these: 10-80 µM. In outline:
as §2

Data set [4] deals with P. aeruginosa hyperporinated strains. Description: Vancomycin susceptibility spot assay on minimal medium. The data set is classed as cell-based, Pseudomonas aeruginosa. As to conditions: MOPS-M9 medium, in the presence of inducer. How it is done:
PAO1-Pore and PΔ3-Pore were grown at 37 °C overnight with shaking at 225 rpm in 50 mM MOPS-M9 (pH 7.2) Minimal Medium supplemented with 1% glycerol[42],[43].

Setting [5] is: PAO1, LB broth, Table 1, read-out: MIC.
The mark [6] stands for this setting: radioactively labeled compound, four strains, 20 min.
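Throughout, for Concentration slopes of accumulation, PΔ3 1 min: slope of accumulation versus external concentration fitted as a line through zero.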
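Throughout, for Concentration slopes of accumulation, PΔ3 40 min: slope of accumulation versus external concentration fitted as a line through zero.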

Regarding `CC(C)Nc1cccnc1N1CCN(C(=O)c2cc3cc(NS(C)(=O)=O)ccc3[nH]2)CC1` [Delavirdine], the MIC in the data set on P. aeruginosa PAO1 (setting [5]) is more than 1000 µM; in the data set on P. aeruginosa PAO1-Pore (PAO1), more than 1000 µM; in the data set on P. aeruginosa PΔ3 it was more than 1000 µM; in the data set on P. aeruginosa PΔ3-Pore (PΔ3-Pore, LB broth, Table 1), more than 1000 µM. Further, the “effect of efflux inactivation and hyperporination on accumulation” value (“effect … on accumulation” for short) in data set [1] (setting [6]) is “equally affected by inactivation of efflux and hyperporination”; in [1] (radioactively labeled compound, four strains, 20 min, listed as [^3H]-delavirdine), “Hyperporination had the strongest effect”.
In the case of `O=C1Nc2ccc(Cl)cc2[C@@](C#CC2CC2)(C(F)(F)F)O1` [Efavirenz], the MIC with P. aeruginosa PAO1 (setting [5]) is more than 1000 µM; with P. aeruginosa PAO1-Pore (PAO1) it was more than 1000 µM; against P. aeruginosa PΔ3 it was more than 1000 µM; in the data set on P. aeruginosa PΔ3-Pore (PΔ3-Pore cells) it was 25000 µM (≈ 7890 µg/mL); in the data set with P. aeruginosa PΔ3-Pore (PΔ3-Pore, LB broth, Table 1), 25 µM and 7.89 µg/mL. Also, the “effect … on accumulation” value in [1] (not told) is “Hyperporination had the strongest effect”.
For the compound `COCCc1ccc(OCC(O)CNC(C)C)cc1` (centres unmarked) [Metoprolol], the MIC was more than 1000 µM with P. aeruginosa PAO1 (setting [5]); more than 1000 µM in the data set on P. aeruginosa PAO1-Pore (PAO1); more than 1000 µM in the data set on P. aeruginosa PΔ3; more than 1000 µM with P. aeruginosa PΔ3-Pore (PΔ3-Pore, LB broth, Table 1). For the same compound, the “effect … on accumulation” value in data set [1] (setting [6]) is on record as “not affected by either of the two barriers”.
Regarding `NC(=O)Cc1cccc(C(=O)c2ccccc2)c1N` [Nepafenac], the MIC is more than 1000 µM in the data set with P. aeruginosa PAO1 (PAO1); more than 1000 µM with P. aeruginosa PAO1-Pore (PAO1); more than 1000 µM with P. aeruginosa PΔ3; more than 1000 µM against P. aeruginosa PΔ3-Pore (PΔ3-Pore, LB broth, Table 1). For the same compound, the “effect … on accumulation” value in data set [1] (setting [6]) is “Hyperporination had the strongest effect”.
On to `O=C(O)c1cn(C2CC2)c2cc(N3CCNCC3)c(F)cc2c1=O` [OU-0001036, Ciprofloxacin], for which the MIC in the data set with P. aeruginosa PAO1 (setting [5]) is 0.19 µM and 0.06 µg/mL; in the data set with P. aeruginosa PAO1 (PAO1, MOPS-M9 medium, read-out: MICs) it was 1 µM and 0.33 µg/mL; against P. aeruginosa PAO1-Pore (PAO1), 0.09 µM and 0.03 µg/mL; in the data set with P. aeruginosa PAO1-Pore (PAO1, read-out: MICs), 0.0625 µM and 0.02 µg/mL; against P. aeruginosa PΔ3, 0.05 µM and 0.02 µg/mL; in the data set with P. aeruginosa PΔ3 (read-out: MICs), 0.25 µM and 0.08 µg/mL. Further, the MIC was 0.02 µM and 0.01 µg/mL against P. aeruginosa PΔ3-Pore (PΔ3-Pore, LB broth, Table 1); 0.031 µM and 0.01 µg/mL with P. aeruginosa PΔ3-Pore (read-out: MICs, P∆3-Pore, MOPS-M9 medium). For the same compound, in the data set on P. aeruginosa PAO1-Pore (MIC PAO1 vs PAO1-Pore), the “effect of hyperporination on antibacterial activity” value is listed as “two-fold”. The values for the MICs in the data set with P. aeruginosa PAO1-Pore and against P. aeruginosa PΔ3-Pore (LB broth) were 0.09 and 0.02, respectively. The “effect … on accumulation” value in [1] (setting [6]) is listed as “inactivation of efflux led to significantly higher levels of accumulation”. The “Concentration slopes of accumulation, PAO1_1 min” value in the data set on P. aeruginosa PAO1 cells (1 min incubation) was 1.15. The “Concentration slopes of accumulation, PAO1_40 min” value with P. aeruginosa PAO1 cells (40 min incubation) was 2.47. Also, the “Concentration slopes of accumulation, PAO1-Pore_1 min” value in data set [2] (1 min incubation) is 3.53. For the same compound, the “Concentration slopes of accumulation, PAO1-Pore_40 min” value in data set [2] (40 min incubation) came out at 3.32. The “Concentration slopes of accumulation, PΔ3_1 min” value in the data set with P. aeruginosa PΔ3 cells (1 min incubation) was found to be 2.99. The “Concentration slopes of accumulation, PΔ3_40 min” value in the data set on P. aeruginosa PΔ3 cells (40 min incubation) was 1.33. Besides, the “Concentration slopes of accumulation, PΔ3-Pore_1 min” value in data set [3] (1 min incubation) is given as 2.77. In data set [3] (40 min incubation), the “Concentration slopes of accumulation, PΔ3-Pore_40min” value amounted to 2.77.
`Cc1cc(C(C)(C)C)c(O)c(C)c1CC1=NCCN1` [Oxymetazoline]: the MIC in the data set on P. aeruginosa PAO1 (setting [5]) was more than 1000 µM; in the data set on P. aeruginosa PAO1-Pore (PAO1) it was more than 1000 µM; in the data set on P. aeruginosa PΔ3, 1000 µM (≈ 260 µg/mL); in the data set with P. aeruginosa PΔ3-Pore (PΔ3-Pore, LB broth, Table 1), 1000 µM (≈ 260 µg/mL). Moreover, the “accumulated radioactivity washed out of cells” value in data set [1] (PΔ3-Pore cells, 30 min incubation, 0.1 mL wash) was found to be 95%. Also, in [1] (setting [6]), the “effect … on accumulation” value was “Efflux inactivation or hyperporination resulted in a similar increase”.
In the case of `CN(C)[C@@H]1C(O)=C(C(N)=O)C(=O)[C@@]2(O)C(O)=C3C(=O)c4c(O)cccc4[C@@](C)(O)[C@H]3C[C@@H]12` [Tetracycline], the MIC in the data set with P. aeruginosa PAO1 (setting [5]) is 12.5 µM and 5.56 µg/mL; with P. aeruginosa PAO1-Pore (PAO1) it was 0.39 µM and 0.17 µg/mL; in the data set with P. aeruginosa PΔ3 it was 0.78 µM and 0.35 µg/mL; in the data set with P. aeruginosa PΔ3-Pore (PΔ3-Pore, LB broth, Table 1), 0.78 µM and 0.35 µg/mL. Moreover, the values for the MICs against P. aeruginosa PAO1-Pore and against P. aeruginosa PΔ3-Pore (LB broth) were 0.39-1.56 and 0.78, respectively. Further, the “effect … on accumulation” value in [1] (not told) was “equally affected by inactivation of efflux and hyperporination”.
In the case of `CN[C@H](CC(C)C)C(=O)N[C@H]1C(=O)N[C@@H](CC(N)=O)C(=O)N[C@H]2C(=O)N[C@H]3C(=O)N[C@H](C(=O)N[C@H](C(=O)O)c4cc(O)cc(O)c4-c4cc3ccc4O)[C@H](O)c3ccc(c(Cl)c3)Oc3cc2cc(c3O[C@@H]2O[C@H](CO)[C@@H](O)[C@H](O)[C@H]2O[C@H]2C[C@](C)(N)[C@H](O)[C@H](C)O2)Oc2ccc(cc2Cl)[C@H]1O` [vancomycin], the “susceptibility in spot assay” value in data set [4] was “highly susceptible”.
